Laboratory results published in US20250090437A1, “COSMETIC COMPOUNDING AGENT, COSMETIC AND PRODUCTION METHOD THEREOF” (MIYOSHI OIL & FAT CO., LTD., priority 2019, published 2025).

How the values were obtained:
[1] = Water retention property and adherability with respect to healthy hair; design: species or system human; details: for Adherability to the healthy hair: compared to the compounds of comparative examples B1 to B8
Procedure: In the following evaluations, a human black hair produced by Beaulax Co., Ltd was used as a healthy hair. A damaged hair was prepared by repeatedly having the healthy hair permed and bleached three times.
An 80 wt % aqueous solution of each of the compounds B1 to B26 (content in terms of anhydride in the cases of the compounds B1 to B23) was prepared, followed by using a Karl Fischer moisture meter (KF-200 by Mitsubishi Chemical Analytech Co., Ltd.) to confirm that a moisture rate was 20.0 wt %. As a healthy hair, there was used a chemically untreated healthy hair (human black hair by Beaulax Co., Ltd). The moisture rate (pre-test moisture rate A) of the hair was measured by an infrared moisture meter (by Kett Electric Laboratory).
After immersion, the hair was taken out, and KimWipes were then used to wipe off the compound until a change in weight was no longer observed, followed by measuring the weight of the hair (post-test hair weight B). The hair from which the compound had been wiped off was then placed into a thermo-hygrostat set to 40° C. and 35 to 40% RH. A moisture rate after 24 hours (post-test moisture rate B) was then measured, followed by calculating a rate of reduction in moisture with the following formula. Likewise, instead of the 80 wt % aqueous solution, evaluation was also performed in a similar manner using only an ion-exchange water (comparative example B4).
Further, an adhesion rate of the compound adhering to the hair was calculated with the following formula. […]

[2] = Sensory evaluation on damaged hair after using organic ammonium salt; design: species or system human; details: compared to the compounds of the comparative examples
Procedure: Here, an 80 wt % aqueous solution(s) of each of the compounds B11, B12, B23, B26 and B27 (content in terms of anhydride in the cases of the compounds B11, B12 and B23) were prepared and used as samples. Next, one minute was spent in evenly applying 10.0 g of each sample to a bundle of the damaged hairs weighing about 10 g, using a brush; the bundle of the damaged hairs was then left for 5 min. After leaving it for 5 min, the bundle of the damaged hairs was rinsed with a hot water of 40° C. for 30 sec, and evaluated was a finger-combing capability at the time of performing washing. The hair bundle that had been rinsed was then dried with a towel and further subjected to air drying for a day, followed by evaluating items such as elasticity/resilience (feeling by bare hands), cohesiveness, surface smoothness and non-waviness, from the perspective of superiority or inferiority to a test hair bundle(s) uncoated with the sample.

[3] = Sensory evaluation on healthy hair after using organic ammonium salt; design: species or system human; details: compared to the compounds of the comparative examples
Procedure: Here, an 80 wt % aqueous solution(s) of each of the compounds B11, B12, B23, B26 and B27 (content in terms of anhydride in the cases of the compounds B11, B12 and B23) were prepared and used as samples. Next, one minute was spent in evenly applying 10.0 g of each sample to a bundle of the healthy hairs weighing about 10 g, using a brush; the bundle of the healthy hairs was then left for 5 min. After leaving it for 5 min, the bundle of the healthy hairs was rinsed with a hot water of 40° C. for 30 sec, and evaluated was a finger-combing capability at the time of performing washing. The hair bundle that had been rinsed was then dried with a towel and further subjected to air drying for a day, followed by evaluating items such as flexibility, finger-combing capability, texture, elasticity/resilience (feeling by bare hands), volume increase (visual evaluation), cohesiveness, moist feeling, surface smoothness, non-stickiness (feeling by bare hands) and gloss (visual evaluation), from the perspective of superiority or inferiority to a test hair bundle(s) uncoated with the sample.

[4] = Water confinement property test (barrier property); assay type: physicochemical; details: 24 hours
Procedure: Next, 20.0 g of an ion-exchange water was put into a 40 mL pierce vial bottle (by AS ONE Corporation.), followed by removing an inner lid (rubber plug) of the pierce vial bottle, placing on the pierce vial bottle the filter paper to which each sample had been applied, and then plugging the bottle with an outer lid.
Further, Wm1, Wm2, Sm1 and Sm2 in the formula below respectively represent the following numerical values.
Wm1: Weight of ion-exchange water in vial before storage (using filter paper to which only ion-exchange water had been applied)
Wm2: Weight of ion-exchange water in vial after 24 hours (using filter paper to which only ion-exchange water had been applied)
Sm1: Weight of ion-exchange water in vial before storage (using filter paper to which sample had been applied)
Sm2: Weight of ion-exchange water in vial after 24 hours (using filter paper to which sample had been applied)

[5] = Water retention property test 1; assay type: physicochemical; details: 80 wt % aqueous solution; for Pre-test moisture rate: before the test (Karl Fischer); for Post-test moisture rate / Rate of reduction in moisture: unsealed; for Post-test moisture rate / Rate of reduction in moisture / Water retention property test 1 Post-test moisture rate / Water retention property test 1 Rate of reduction in moisture: 24 hours at 40° C. and 25% RH
Procedure: A moisture rate after 24 hours was again measured (post-test moisture rate: B), followed by using the formula below to calculate a rate of reduction in moisture so as to evaluate the water retention property. • Pre-test moisture rate: A (%) • Post-test moisture rate: B (%)

[6] = Permeability to skin (horny layer tape stripping method); assay type: in vivo; details: extraction liquid, an hour after application to the arm, HPLC
Procedure: Skin permeability was evaluated by a horny layer tape stripping method. […] A sample was applied to the arm and then left thereon for an hour before performing tape stripping on the horn by eight layers. An adhered substance on this tape was then extracted with an ion-exchange water over the course of 10 min, followed by filtrating an extraction liquid thus obtained with a 0.2 μm filter, and then quantifying, via HPLC, the amount of each of the compounds C20, C64 and C97 in each extraction liquid filtrated.

[7] = 80 wt % aqueous solution, 0.01 mL/cm^2 on filter paper, 40° C. and 25% RH

Compound	Water evaporation inhibition rate [4, 7] [%]	Pre-test moisture rate [5] [%]	Post-test moisture rate [5] [%]	Rate of reduction in moisture [5] [%]	further results
CC(C)CCCCCCCCCCCCCCC(=O)OCC(C)(N)CO (stereo not drawn) [Compound B35, 2-amino-2-methyl-1,3-propanediol isostearate]					Adherability to the healthy hair [1]: higher adherability; Sensory evaluation on damaged hair (elasticity/resilience, cohesiveness, surface smoothness, suppression of waviness) [2]: superior; Sensory evaluation on healthy hair (flexibility, finger-combing, texture, elasticity/resilience, volume, cohesiveness, moist feeling, smoothness, non-stickiness, gloss) [3]: superior
NC(CO)(CO)CO.O=C(O)CC(O)(CC(=O)O)C(=O)O [Compound C82]	35.8				
CCCC[N+](CCCC)(CCCC)CCCC.[Br-] [Compound A54, tetrabutylammonium bromide, reference compound]	29.5	20.0	15.3	23.6	Post-test moisture rate ([1]; healthy hair immersed 60 min in 80 wt % aqueous solution, after 24 hours at 40° C., 35 to 40% RH, pre-test 7.6%): 4.0%; Compound adhesion rate ([1]; healthy hair immersed 60 min in 80 wt % aqueous solution, listed as B24): 1.0%; Rate of reduction in moisture ([1]; healthy hair, 80 wt % aqueous solution, 24 hours at 40° C., 35 to 40% RH): 47%
CC(N)(CO)CO.NCCCCCC(=O)O [Compound C76]	35.7				
CC(O)C(=O)[O-].[K+] (stereo not drawn) [Compound C97, potassium lactate]					Compound concentration ([6]; Tape stripping layer 1): 0.020 ml/L; Compound concentration ([6]; Tape stripping layer 2): 0.017 ml/L; Compound concentration ([6]; Tape stripping layer 3): 0.016 ml/L; Compound concentration ([6]; Tape stripping layer 4): 0.009 ml/L; Compound concentration ([6]; Tape stripping layer 5): 0.008 ml/L; Compound concentration ([6]; Tape stripping layer 6): 0.006 ml/L; Compound concentration ([6]; Tape stripping layer 7): 0.006 ml/L; Compound concentration ([6]; Tape stripping layer 8): 0.006 ml/L
CCCCC/C=C\C/C=C\CCCCCCCC(=O)OCC(C)(N)CO (stereo not drawn) [Compound B34, 2-amino-2-methyl-1,3-propanediol linoleate]					Adherability to the healthy hair [1]: higher adherability; Sensory evaluation on damaged hair (elasticity/resilience, cohesiveness, surface smoothness, suppression of waviness) [2]: superior; Sensory evaluation on healthy hair (flexibility, finger-combing, texture, elasticity/resilience, volume, cohesiveness, moist feeling, smoothness, non-stickiness, gloss) [3]: superior
CC(C)CCCCCCCCCCCCCCC(=O)OCC(N)(CO)CO [Compound B32, 2-amino-2-hydroxymethyl-1,3-propanediol isostearate]					Adherability to the healthy hair [1]: higher adherability; Sensory evaluation on damaged hair (elasticity/resilience, cohesiveness, surface smoothness, suppression of waviness) [2]: superior; Sensory evaluation on healthy hair (flexibility, finger-combing, texture, elasticity/resilience, volume, cohesiveness, moist feeling, smoothness, non-stickiness, gloss) [3]: superior
CCCCCCCC/C=C\CCCCCCCC(=O)OCC(N)(CO)CO [Compound B30, 2-amino-2-hydroxymethyl-1,3-propanediol oleate]					Adherability to the healthy hair [1]: higher adherability; Sensory evaluation on damaged hair (elasticity/resilience, cohesiveness, surface smoothness, suppression of waviness) [2]: superior; Sensory evaluation on healthy hair (flexibility, finger-combing, texture, elasticity/resilience, volume, cohesiveness, moist feeling, smoothness, non-stickiness, gloss) [3]: superior
CCCCCCCC/C=C\CCCCCCCC(=O)OCC(C)(N)CO (stereo not drawn) [Compound B33, 2-amino-2-methyl-1,3-propanediol oleate]					Adherability to the healthy hair [1]: higher adherability; Sensory evaluation on damaged hair (elasticity/resilience, cohesiveness, surface smoothness, suppression of waviness) [2]: superior; Sensory evaluation on healthy hair (flexibility, finger-combing, texture, elasticity/resilience, volume, cohesiveness, moist feeling, smoothness, non-stickiness, gloss) [3]: superior
CS(=O)(=O)O.NC(CO)(CO)CO [Compound C83]	31.3				
CCCCC/C=C\C/C=C\CCCCCCCC(=O)OCC(N)(CO)CO [Compound B31, 2-amino-2-hydroxymethyl-1,3-propanediol linoleate]					Water evaporation inhibition rate ([4]; sample on filter paper over vial of water, 40° C., 25% RH): 48.1%; Adherability to the healthy hair [1]: higher adherability; Sensory evaluation on damaged hair (elasticity/resilience, cohesiveness, surface smoothness, suppression of waviness) [2]: superior; Sensory evaluation on healthy hair (flexibility, finger-combing, texture, elasticity/resilience, volume, cohesiveness, moist feeling, smoothness, non-stickiness, gloss) [3]: superior

Now from value to compound, other results behind:

Water evaporation inhibition rate [4, 7] [%]	Pre-test moisture rate [5] [%]	Post-test moisture rate [5] [%]	Rate of reduction in moisture [5] [%]	Compound	further results
25.7	20.0	11.7	41.7	CCCCn1cc[n+](C)c1.F[B-](F)(F)F [Compound C63, 1-butyl-3-methylimidazolium tetrafluoroborate, reference compound]	
34.1	20.0	18.4	7.9	CC(CO)(CO)CO [Compound C55]	
35.4				CC(CO)(CO)CO [Compound C77]	
35.6	20.0	19.1	4.5	CC(CO)(CO)CO [Compound C51]	
36.8	20.0	18.6	7.1	CC(CO)(CO)CO [Compound C52]	
30.3	20.0	18.8	5.8	CC(CO)(CO)CO [Compound C54]	
39.7				CC(C)(C)CO [Compound C43]	Water retention property test 1 Pre-test moisture rate [5]: 20.0%; Water retention property test 1 Post-test moisture rate [5]: 19.3%; Water retention property test 1 Rate of reduction in moisture [5]: 4.4%
34.8				CC(C)(CO)CO [Compound C47]	Water retention property test 1 Pre-test moisture rate [5]: 20.0%; Water retention property test 1 Post-test moisture rate [5]: 19.2%; Water retention property test 1 Rate of reduction in moisture [5]: 4.7%
39.4				CC(C)(CO)CO [Compound C65]	
39.1	20.0	19.1	4.4	CC(CO)(CO)CO [Compound C50]	
34.6	20.0	19.1	4.4	CC(CO)(CO)CO [Compound C53]	
